Read-outs that look alike come from different tables or passages of the source.
Legend:
[1] = Clinical pharmacokinetics in plasma (LC–MS/MS, non-compartmental analysis) after oral modified formula ECa 233 capsules; assay type: in vivo, human (healthy Thai volunteers)
Experimental: This was a single-center, with an open-label, two-sequence of dosages (250 and 500 mg), two-periods of study (single and multiple dose) conducted in fasting condition (Fig. 1). […] All blood samples were centrifuged at 4 °C, 3200 × g for 10 min. […] Feces were also collected from one of the volunteers for detecting the possible presence of any eliminated compounds. Feces samples were collected each time that a volunteer defecated on day 1-3, 4-6 and 7-9 during the study period. These samples were immediately fixed with methanol and prepared by our previously described method of protein precipitation. […] Plasma, urine and fecal samples were then stored at - 80 °C until analysis. […] Then they had another set of blood and urine samples collected similar to the single dose study. […] Sample preparation was performed by protein precipitation with two internal standards (glycerrhizin and […]) to correct the quantitative analysis of parent compounds and of their metabolites. Briefly, 200 μL of methanol was added followed by vortex mixing with 50 μL of each sample for 10 min and then centrifuged at 12,000 × g, 4 °C, 10 min. Quantitative determination of the parent compounds and their active metabolites in plasma and urine were carried out by using liquid chromatography tandem mass spectrometry (LC-MS/MS): LCMS-8060 (Shimadzu Corp. Japan) according to a previously validated and published bioanalytical method. […] The MS/MS system was operated using an ESI source in negative mode with MRM. For m/z transition; […] Non-compartmental analysis was applied to determine pharmacokinetic parameters and performed by PK solutions software (version 2.0). […] The apparent clearance (Cl/F) after oral administration was calculated as Cl/F = Dose/AUC, where F is the absolute oral bioavailability. The apparent volume of distribution (Vd/F) was estimated using Vd/F = Dose/(AUC × kel). The Cmax and Tmax were determined directly from the observed concentration-time curve.

[2] = Urine and feces excretion after oral modified formula ECa 233 capsules (LC–MS/MS); assay type: in vivo, human (healthy Thai volunteers)
Experimental: This was a single-center, with an open-label, two-sequence of dosages (250 and 500 mg), two-periods of study (single and multiple dose) conducted in fasting condition (Fig. 1). […] All blood samples were centrifuged at 4 °C, 3200 × g for 10 min. […] Feces were also collected from one of the volunteers for detecting the possible presence of any eliminated compounds. Feces samples were collected each time that a volunteer defecated on day 1-3, 4-6 and 7-9 during the study period. These samples were immediately fixed with methanol and prepared by our previously described method of protein precipitation. […] Plasma, urine and fecal samples were then stored at - 80 °C until analysis. Sample preparation was performed by protein precipitation with two internal standards (glycerrhizin and […]) to correct the quantitative analysis of parent compounds and of their metabolites. Briefly, 200 μL of methanol was added followed by vortex mixing with 50 μL of each sample for 10 min and then centrifuged at 12,000 × g, 4 °C, 10 min. […] The MS/MS system was operated using an ESI source in negative mode with MRM.

[3] = in vivo; cited from earlier work
[4] = human, plasma, po, 250 mg, plasma, multiple dose oral, Day 7 (T0-72 h), ECa 233 250 mg daily, mean ± SD, n=12, read-out: AUC
[5] = human, plasma, po, 250 mg, plasma, multiple dose oral, Day 7 (T0-72 h), ECa 233 250 mg daily, mean ± SD, n=12, read-out: Cmax
[6] = human, plasma, po, 250 mg, plasma, multiple dose oral, Day 7 (T0-72 h), ECa 233 250 mg daily, median [IQR], n=12, read-out: Tmax
[7] = human, plasma, po, 250 mg, plasma, single dose oral, Day 1 (T0-24 h), ECa 233 250 mg, mean ± SD, n=12, read-out: AUC
[8] = human, plasma, po, 250 mg, plasma, single dose oral, Day 1 (T0-24 h), ECa 233 250 mg, mean ± SD, n=12, read-out: Cmax
[9] = human, plasma, po, 250 mg, plasma, single dose oral, Day 1 (T0-24 h), ECa 233 250 mg, median [IQR], n=12, read-out: Tmax
[10] = human, plasma, po, 500 mg, plasma, multiple dose oral, Day 7 (T0-72 h), ECa 233 500 mg daily, mean ± SD, n=11, read-out: AUC
[11] = human, plasma, po, 500 mg, plasma, multiple dose oral, Day 7 (T0-72 h), ECa 233 500 mg daily, mean ± SD, n=11, read-out: Cmax
[12] = human, plasma, po, 500 mg, plasma, multiple dose oral, Day 7 (T0-72 h), ECa 233 500 mg daily, median [IQR], n=11, read-out: Tmax
[13] = human, plasma, po, 500 mg, plasma, single dose oral, Day 1 (T0-24 h), ECa 233 500 mg, mean ± SD, n=11, read-out: AUC
[14] = human, plasma, po, 500 mg, plasma, single dose oral, Day 1 (T0-24 h), ECa 233 500 mg, mean ± SD, n=11, read-out: Cmax
[15] = human, plasma, po, 500 mg, plasma, single dose oral, Day 1 (T0-24 h), ECa 233 500 mg, median [IQR], n=11, read-out: Tmax
[16] = plasma, oral modified formula ECa 233 capsules

Compound | AUC [1, 4] | Cmax [1, 5] | Tmax [1, 6] | AUC [1, 7] | Cmax [1, 8] | Tmax [1, 9] | AUC [1, 10] | Cmax [1, 11] | Tmax [1, 12] | AUC [1, 13] | Cmax [1, 14] | Tmax [1, 15] | time after dosing at which Cmax was observed [1, 16] | also measured
C[C@H]1[C@H](C)CC[C@]2(C(=O)O)CC[C@]3(C)C(=CC[C@@H]4[C@@]5(C)C[C@@H](O)[C@H](O)[C@@](C)(CO)[C@@H]5CC[C@]43C)[C@H]12 [ASA, Asiatic acid] | 1010 ± 221 ng·h/mL | 78.2 ± 26.4 ng/mL | 1.5 h | 648 ± 117 ng·h/mL | 79.8 ± 19.3 ng/mL | 1.5 h | 1390 ± 333 ng·h/mL | 170 ± 53.8 ng/mL | 1.5 h | 733 ± 150 ng·h/mL | 102 ± 20.8 ng/mL | 1.5 h | 1 to 2 h | presence in feces ([2]; fecal samples from one volunteer): found in the feces; elimination into urine ([2]; urine 0–24 h after oral dosing of 250 or 500 mg ECa 233): absence of the metabolites in the urine
C[C@H]1[C@H](C)CC[C@]2(C(=O)O)CC[C@]3(C)C(=CC[C@@H]4[C@@]5(C)C[C@@H](O)[C@H](O)[C@@](C)(CO)[C@@H]5[C@H](O)C[C@]43C)[C@H]12 [MDA, Madecassic acid] | 437 ± 175 ng·h/mL | 61.4 ± 20.5 ng/mL | 2 h | 410 ± 100 ng·h/mL | 66.1 ± 17.1 ng/mL | 1.5 h | 516 ± 157 ng·h/mL | 99.8 ± 27.6 ng/mL | 1.5 h | 476 ± 117 ng·h/mL | 72.3 ± 16.3 ng/mL | 1.5 h | 1 to 2 h | 
Madecassoside [MDS] |  |  |  |  |  |  |  |  |  |  |  |  |  | time after dosing at which Cmax was observed ([1]; human, in vivo, po): ≤ 1 h; AUC ([1]; human, in vivo, po, 250 mg): 75.38 ± 26.60 ng·h/mL; Cmax ([1]; human, in vivo, po, 250 mg): 9.57 ± 3.34 ng/mL; Tmax ([1]; human, in vivo, po, 250 mg): 1 [0.5] h; AUC ([1]; human, in vivo, po, 500 mg): 141.16 ± 41.15 ng·h/mL; Cmax ([1]; human, in vivo, po, 500 mg): 12.73 ± 2.73 ng/mL; Tmax ([1]; human, in vivo, po, 500 mg): 1 [0.5] h; excretion (0–72 h) in feces [3]: 24.68%; excretion (0–72 h) in urine [3]: 0.25%

Source: article PMC7994819, “Pharmacokinetics and metabolomics investigation of an orally modified formula of standardized Centella asiatica extract in healthy volunteers” (Scientific Reports, 2021)
